{
  "source": "paper PMC9060145",
  "about": "(Skin Health and Disease, 2021)",
  "key": {"[1]": {"target": "T1, CYP2C8 (Homo sapiens, UniProt P10632)", "T1 sequence (P10632 1-490)": "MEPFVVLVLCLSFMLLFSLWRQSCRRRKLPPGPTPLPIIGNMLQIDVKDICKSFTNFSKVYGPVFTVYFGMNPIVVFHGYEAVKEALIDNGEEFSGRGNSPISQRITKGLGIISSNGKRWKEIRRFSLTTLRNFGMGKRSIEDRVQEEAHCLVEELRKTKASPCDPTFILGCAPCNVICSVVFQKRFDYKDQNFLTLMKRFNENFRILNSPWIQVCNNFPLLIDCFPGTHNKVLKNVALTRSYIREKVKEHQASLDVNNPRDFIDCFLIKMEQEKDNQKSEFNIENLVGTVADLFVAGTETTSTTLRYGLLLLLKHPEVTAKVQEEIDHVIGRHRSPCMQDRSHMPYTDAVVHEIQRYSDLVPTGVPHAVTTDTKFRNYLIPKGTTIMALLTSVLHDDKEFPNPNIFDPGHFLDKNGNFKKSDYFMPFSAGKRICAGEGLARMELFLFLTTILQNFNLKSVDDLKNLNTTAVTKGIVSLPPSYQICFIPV", "test": "CYP450 inhibition assay, human liver microsomes", "assay_type": "biochemical", "parameters": "from tissue; host or cells: human liver microsomes (per the earlier reading and the cited method)", "details": "substrate paclitaxel"}, "[2]": {"target": "T1, CYP2C8", "test": "Qualitative CYP2C8 screening, Vivid CYP2C8 Green kit, fluorimetry", "assay_type": "biochemical", "parameters": "purchased Life Technologies; host or cells: Baculosomes", "details": "recombinant CYP2C8 Baculosomes, probe Vivid DBOMF, 1 µM (1000 nM) compound, substrate DBOMF", "procedure": "CYP450 inhibition assays (excluding CYP19 and 1 µM CYP2C8) were performed as previously described.[31] Substrate metabolite formation was measured by HPLC‐MS/MS. Percent of control activity was determined by comparing metabolite peak areas with and without test compound. Qualitative screening of CYP2C8 (1 µM) and CYP19 is described in detail in Supporting Information. Reference compound IC50 values were determined by non‐linear regression analysis using Hill equation curve fitting.\nA kinetic reaction was carried out for CYP2C8 screening in triplicate according to the Vivid? CYP450 Screening Kit manual protocol (MAN0003095). Briefly, a master pre-mix composed of CYP2C8 Baculosomes®, regeneration system of human P450 reductase/human cytochrome b5, and reaction buffer was prepared before adding 50 µL to each well in a black 96-well plate. Test compounds, positive inhibition control, and solvent controls were prepared as a 2.5X concentration with DMSO in reaction buffer of which 40 µL was dispensed into the 96-well plate. […] The test samples were pre-incubated at 37 °C for 15 min in the fluorescent microplate reader before adding a 10 µL mixture of substrate and NADP^+. Immediately, the plate was read at 2 min intervals over a 30 min time period at 37 °C. The raw data in relative fluorescent units (RFU) was analyzed according to the kinetic assay mode as outlined in the published protocol."}},
  "data": [
    {"smiles": "CC(C)(O)c1ccccc1CC[C@@H](SCC1(CC(=O)O)CC1)c1cccc(/C=C/c2ccc3ccc(Cl)cc3n2)c1", "note": "[montelukast]", "values": [
      {"measurement": "nH (hill coefficient)", "setting": "[1]", "result": 0.6},
      {"measurement": "inhibition at 30 min, 1 µM", "setting": "[2]", "result": 100, "unit": "%"}
    ]}
  ]
}
